Values joined by “and” are separate entries in the source; they are usually repeats but may differ in a detail not shown here. Identical values can stand only once.

Assay [1] concerns NFPA (tumoral pituitary cells). Put plainly: free cytosolic calcium kinetics ([Ca^2+]i), NFPA cells. The class given is cell-based, human. As to the method:
(§1) Pituitary adenoma specimens were dispersed into single cells by enzymatic and mechanical disruption and cultured onto tissue culture plates in serum containing medium, as previously described. Briefly, pituitary samples were resected by endoscopic transsphenoidal surgery and transferred to sterile cold (4°C) culture medium (S-MEM, Gibco, Madrid, Spain) supplemented with 0.1% BSA, 0.01% L-glutamine, 1% antibiotic-antimycotic solution, and 2.5% HEPES. Samples were minced under sterile conditions into 1–2 mm^3 pieces. Some pieces were stored at −80°C for posterior RNA isolation and, when possible, the remaining tissue samples were washed and incubated in 30 mL S-MEM medium supplemented 0.3% trypsin (Beckson, Dickinson and Company, Sparks, MD, USA) in a spinner flask (Bellco Glass, Vineland, NJ, USA) for 2 h of gentle shaking at 37°C and then, incubation was continued for another 5 min in presence of 1 mg of DNAse I (Roche, Mannheim, Germany). Dispersed cells were decanted by centrifugation and then, by repeated aspiration into a smoothtipped glass Pasteur pipette. […]
As previously reported, changes in [Ca^2+]i in single cells were measured using fura-2AM (50,000 cells/coverslip; Molecular Probes, Eugene, OR)[23][30]. […] Cells were examined for changes in [Ca^2+]i after the appropriate treatment (native ghrelin, In1-19 or In1-40) using a 40× objective with Immersion Oil Type NF (Nikon, Tokyo, Japan) while exposed to alternating 340–380 nm light beams, and the intensity of light emission at 505 nm was measured every 5 seconds using MetaFluor Software (Imaging Corp., West Chester, PA, USA). […] Changes in [Ca^2+]i in CHO-K1 cell line expressing recombinant GHSR1a or GHSR1b receptor were measured using Calcium 4 Explorer Kit (Molecular Devices, Sunnyvale, CA, USA). […] Fluorescent signals were then monitored using the FLIPR Tetra (Molecular Devices, Sunnyvale, CA, USA) during which cells were stimulated with compounds. Dose-response curves were analyzed using GraphPad Prism v5.04 (La Jolla, CA, USA).

The subject of a further assay is p-Akt. The assay is described as follows: Akt phosphorylation by western blot in GH-omas. The assay is classed as cell-based, human. The following applies: 100 nM, 8 minutes, p-Akt/total Akt vs vehicle (100%), n = 4. The procedure:
as §1, with “pipette. Cells suspensions were washed once in 4.5 g/L glucose containing DMEM medium (Gibco, Madrid, Spain) supplemented with 0.1% BSA, 0.01% L-glutamine, 1% antibiotic-antimycotic solution, and 2.5% HEPES.” for “pipette.”
In general terms: In western blotting, separated proteins are transferred to a membrane and probed.

In a further assay the test system is ACTH-omas. Put plainly: cell viability of ACTH-oma primary cultures, peptide treatment. The assay is classed as cell-based, human. The following applies: 100 nM, 24 h, alamar-blue, n = 2–8. The procedure: as §1
As previously reported, cell viability was estimated using alamar-blue reagent (10,000 cells/well-plate; Biosource International, Camarillo, CA, USA)[30][50][52]. […] Reduction of alamar-blue reagent was quantified exciting at 560 nm and reading at 590 nm using the FlexStation III system (Molecular Devices, Sunnyvale, CA, USA). […]

The subject of the next assay is PRL-omas. Particulars: previous studies; cited from earlier work. From the text: Conversely, In1-ghrelin peptides only elicited [Ca^2+]i responses in a negligible percentage of PRL-oma cells, which is in accordance with the lack of effect of these peptides in the modulation of PRL release. However, In1-40 but not In1-19 p ...

Take `CCCCCCCC(=O)OC[C@H](NC(=O)[C@H](CO)NC(=O)CN)C(=O)N[C@@H](Cc1ccccc1)C(=O)N[C@@H](CC(C)C)C(=O)N[C@@H](CO)C(=O)N1CCC[C@H]1C(=O)N[C@@H](CCC(=O)O)C(=O)N[C@@H](Cc1c[nH]cn1)C(=O)N[C@@H](CCC(N)=O)C(=O)N[C@@H](CCCNC(=N)N)C(=O)N[C@H](C(=O)N[C@@H](CCC(N)=O)C(=O)N[C@@H](CCC(N)=O)C(=O)N[C@@H](CCCNC(=N)N)C(=O)N[C@@H](CCCCN)C(=O)N[C@@H](CCC(=O)O)C(=O)N[C@@H](CO)C(=O)N[C@@H](CCCCN)C(=O)N[C@@H](CCCCN)C(=O)N1CCC[C@H]1C(=O)N1CCC[C@H]1C(=O)N[C@@H](C)C(=O)N[C@@H](CCCCN)C(=O)N[C@@H](CC(C)C)C(=O)N[C@@H](CCC(N)=O)C(=O)N1CCC[C@H]1C(=O)N[C@@H](CCCNC(=N)N)C(=O)O)C(C)C` [AG]: in assay [1] (NFPA, proportion of responsive cells, fura-2AM single-cell imaging), the “% cell resp.” value is 29% and 29.4%. Besides, in assay [1] (NFPA, responsive/tested samples, fura-2AM, 408 / 367 / 29 cells analyzed for AG / In1-19 / In1-40, peptides 100 nM (abstract)), the “# samples” value was 9/15. The “[Ca^2+]i response (in words)” value in assay [1] (NFPAs, fura-2AM) is on record as “a subset of NFPA cells is responsive”. For the same molecule, the p-Akt levels result in the assay with p-Akt is reported as “increased both, p-ERK1/2 as well as p-Akt, levels”. In addition, the cell viability result in the assay with ACTH-omas is on record as “increased cell viability”. In addition, the PRL secretion result with PRL-omas is “increases PRL secretion”.

(Values after publication PMC4649711, “In1-ghrelin splicing variant is overexpressed in pituitary adenomas and increases their aggressive features” (Scientific Reports, 2015).)
